The target of test [1] is CpunPBP2-m1 (CpunPBP2-Phe9 mutant) (Conogethes punctiferalis, UniProt A0A1D6X8W8, F33Y). The test can be described thus: Fluorescence displacement binding assay of mutants. The following applies: for Kd: read-out: KD, calculated dissociation constant. The procedure:
(§1) The fluorescence intensity was recorded on a FluoroMax-4 spectrophotometer (Horiba Scientific, USA) at room temperature using a 1 cm light path fluorimeter quartz cuvette. The fluorescent probe N-phenyl-1-naphthylamine (1-NPN) and all the tested chemicals were dissolved in HPLC purity methanol. The final concentration was prepared 1 mM. To measure the affinity of florescent ligand 1-NPN to each protein, a 2 μM solution of the protein in 50 mM Tris-HCl, pH 7.4, was titrated with aliquots of 1 mM ligand in methanol to final concentrations of 1–8 μM. The fluorescence of 1-NPN was excited at 337 nm and emission spectra were recorded between […] and 450 nm. The affinity of other ligands was measured in competitive binding assays, using 1-NPN as the fluorescent reporter at 2 μM concentration and different concentrations of each ligands. The GraphPad Prism 5 (GraphPad Software, Inc.) was used to estimate the K1−NPN (KD of complex protein /1-NPN) values by nonlinear regression for a unique site of binding. It was assumed that the proteins were 100% active, with a stoichiometry of 1:1 (protein:ligand) at saturation. For other competitor ligands, the dissociation constants were calculated from the corresponding IC50 (concentrations of ligands halving the initial fluorescence value of 1-NPN) values using Microsoft Office Excel 2010, with the formula: KD = [IC50]/(1+[1-NPN]/K1−NPN). In the equation, [1-NPN] is the free concentration of 1-NPN, and K1−NPN is the dissociation constant of the complex protein /1-NPN.
(§2) Four mutants of CpunPBP2 and four mutants of CpunPBP5 were developed using the QuikChange Lightning Site-Directed Mutagenesis Kit (Stratagene, USA). The mutational primers were designed manually. Mutation sites are underlined in Table S2. The CpunPBP2/pGEM-T Easy construct was used as a template. The PCR conditions were 95°C for 5 min, followed by 30 cycles of 95°C for 30 s, 58°C for 30 s and 68°C for 1 min, and final extension at 72°C for 10 min. The correct insertion of mutation was subcloned into pGEM-T Easy vector (TransGen, Beijing, China). The expression system and fluorescence binding assay were conducted as mentioned for wild type proteins.
(§3) Supplementary file Image3.jpg: Figure S3 SDS-PAGE analyses of purified CpunPBP2 and CpunPBP5 with their mutants. M: marker protein. (A)1:CpunPBP2 original protein. (A)2: CpunPBP2-Phe9 mutant (CpunPBP2-m1). (A)3: CpunPBP2-Phe33 mutant (CpunPBP2-m2). (A)4: CpunPBP2-Ser53 mutant (CpunPBP2-m3). (A)5: CpunPBP2-Phe115 mutant (CpunPBP2-m4). (B)1:CpunPBP5 original protein. (B)2: CpunPBP5-Ser9 mutant (CpunPBP5-m1). (B)3: CpunPBP5-Phe12 mutant (CpunPBP5-m2). (B)4: CpunPBP5-Val115 mutant (CpunPBP5-m3). (B)5: CpunPBP5-Arg120 mutant (CpunPBP5-m4). Click here for additional data file.

The target of test [2] is CpunPBP5-m4 (CpunPBP5-Arg120 mutant) (Conogethes punctiferalis, UniProt A0A0M4FIS7, R145K). Briefly: Fluorescence displacement binding assay of mutants. The procedure: as §1, §2, §3
Sequence of CpunPBP5-m4 (CpunPBP5-Arg120 mutant) (A0A0M4FIS7 entry or part of it R145K): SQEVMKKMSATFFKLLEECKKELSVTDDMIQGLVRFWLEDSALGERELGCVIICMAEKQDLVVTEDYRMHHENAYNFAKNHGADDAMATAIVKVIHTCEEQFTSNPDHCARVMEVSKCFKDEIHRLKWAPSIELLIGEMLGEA
Test [3] deals with CpunPBP5-m3 (CpunPBP5-Val115 mutant) (Conogethes punctiferalis, UniProt A0A0M4FIS7, V140A). Briefly: Fluorescence displacement binding assay of mutants. The procedure: as §1, §2, §3
Sequence of CpunPBP5-m3 (CpunPBP5-Val115 mutant) (A0A0M4FIS7 entry or part of it V140A): as the sequence (A0A0M4FIS7 entry or part of it R145K) above, with V115A, K120R counted along it
In test [4] the target is CpunPBP2-m4 (CpunPBP2-Phe115 mutant) (Conogethes punctiferalis, UniProt A0A1D6X8W8, F139Y). The test can be described thus: Fluorescence displacement binding assay of mutants. The following applies: for Kd: read-out: KD, calculated dissociation constant. The procedure:
as §1, §2, §3

The target of test [5] is CpunPBP2-m3 (CpunPBP2-Ser53 mutant) (Conogethes punctiferalis, UniProt A0A1D6X8W8, S77Y). Briefly: Fluorescence displacement binding assay of mutants. The following applies: for Kd: read-out: KD, calculated dissociation constant. The procedure: as §1, §2, §3
Sequence of CpunPBP2-m3 (CpunPBP2-Ser53 mutant) (A0A1D6X8W8 entry or part of it S77Y): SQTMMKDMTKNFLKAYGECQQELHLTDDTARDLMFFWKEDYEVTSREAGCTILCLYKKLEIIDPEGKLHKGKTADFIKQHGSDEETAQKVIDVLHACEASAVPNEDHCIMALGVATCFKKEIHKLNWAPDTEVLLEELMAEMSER
Test [6] addresses CpunPBP5-m1 (CpunPBP5-Ser9 mutant) (Conogethes punctiferalis, UniProt A0A0M4FIS7, S34T). The test can be described thus: Fluorescence displacement binding assay of mutants. The procedure:
as §1, §2, §3

Test [7] concerns the target CpunPBP5-m2 (CpunPBP5-Phe12 mutant) (Conogethes punctiferalis, UniProt A0A0M4FIS7, F37Y). The test can be described thus: Fluorescence displacement binding assay of mutants. The procedure: as §1, §2, §3
Test [8] concerns the target CpunPBP2-m2 (CpunPBP2-Phe33 mutant) (Conogethes punctiferalis, UniProt A0A1D6X8W8, F57Y). Briefly: Fluorescence displacement binding assay of mutants. The following applies: for Kd: read-out: KD, calculated dissociation constant. The procedure:
as §1, §2, §3

A further test has as its target CpunPBP5 (Conogethes punctiferalis, UniProt A0A0M4FIS7). Briefly: Fluorescence displacement (competitive, 1-NPN) binding assay. The conditions noted are these: for IC50 / Kd / activity at 6000 µM: pH = 7.4; for IC50: 1-NPN 2 μM as fluorescent reporter, 2 μM protein, read-out: IC50; for Kd: calculated from IC50: KD = [IC50]/(1+[1-NPN]/K1-NPN), read-out: KD (μM), calculated dissociation constant; for binding affinity to CpunPBP5 (in words): ranking among the 24 tested ligands; for activity at 6000 µM: ratio of fluorescence intensity at the pheromone concentration of 6 mM to the initial fluorescence intensity, read-out: Int (%). The procedure:
(§4) The fluorescence intensity was recorded on a FluoroMax-4 spectrophotometer (Horiba Scientific, USA) at room temperature using a 1 cm light path fluorimeter quartz cuvette. The fluorescent probe N-phenyl-1-naphthylamine (1-NPN) and all the tested chemicals were dissolved in HPLC purity methanol. The final concentration was prepared 1 mM. […] The fluorescence of 1-NPN was excited at 337 nm and emission spectra were recorded between […]. […] The GraphPad Prism 5 (GraphPad Software, Inc.) was used to estimate the K1−NPN (KD of complex protein /1-NPN) values by nonlinear regression for a unique site of binding. It was assumed that the proteins were 100% active, with a stoichiometry of 1:1 (protein:ligand) at saturation. […] In the equation, [1-NPN] is the free concentration of 1-NPN, and K1−NPN is the dissociation constant of the complex protein /1-NPN.

Another test deals with CpunPBP2 (Conogethes punctiferalis, UniProt A0A1D6X8W8). The description is as above. The following applies: for IC50 / Kd / activity at 6000 µM: pH = 7.4; for IC50: 1-NPN 2 μM as fluorescent reporter, 2 μM protein, read-out: IC50; for Kd: calculated from IC50: KD = [IC50]/(1+[1-NPN]/K1-NPN), read-out: KD (μM), calculated dissociation constant; for binding affinity to CpunPBP2 (in words): ranking among the 24 tested ligands; for activity at 6000 µM: ratio of fluorescence intensity at the pheromone concentration of 6 mM to the initial fluorescence intensity, read-out: Int (%). The procedure:
as §4

For another test, the system named is yellow peach moth males. Set-up: method as in Liu et al., [1994]. The conditions noted are these: ref Liu et al., [1994]; cited from earlier work.

This is an account of results in paper PMC5891627, “Binding Specificity of Two PBPs in the Yellow Peach Moth Conogethes punctiferalis (Guenée)” (Frontiers in Physiology, 2018).

SMILES strings stand for the structures.

Sequence of CpunPBP5-m2 (CpunPBP5-Phe12 mutant) (A0A0M4FIS7 entry or part of it F37Y): as the sequence (A0A0M4FIS7 entry or part of it R145K) above, with F12Y, K120R counted along it
Sequence of CpunPBP5-m1 (CpunPBP5-Ser9 mutant) (A0A0M4FIS7 entry or part of it S34T): as the sequence (A0A0M4FIS7 entry or part of it R145K) above, with S9T, K120R counted along it
Sequence of CpunPBP5 (A0A0M4FIS7 entry or part of it): as the sequence (A0A0M4FIS7 entry or part of it R145K) above, with K120R counted along it
Sequence of CpunPBP2-m1 (CpunPBP2-Phe9 mutant) (A0A1D6X8W8 entry or part of it F33Y): as the sequence (A0A1D6X8W8 entry or part of it S77Y) above, with F12Y, Y56S counted along it
Sequence of CpunPBP2 (A0A1D6X8W8 entry or part of it): as the sequence (A0A1D6X8W8 entry or part of it S77Y) above, with Y56S counted along it
Sequence of CpunPBP2-m4 (CpunPBP2-Phe115 mutant) (A0A1D6X8W8 entry or part of it F139Y): as the sequence (A0A1D6X8W8 entry or part of it S77Y) above, with Y56S, F118Y counted along it
Sequence of CpunPBP2-m2 (CpunPBP2-Phe33 mutant) (A0A1D6X8W8 entry or part of it F57Y): as the sequence (A0A1D6X8W8 entry or part of it S77Y) above, with F36Y, Y56S counted along it

As a reminder, the IC50 is the concentration needed to halve the response being measured. As usually defined, the Kd is the concentration at which binding is half-saturated. On to `CCCCC/C=C/CCCCCCCCC=O` [E10-16:Ald, (E)-10-hexadecenal], for which the IC50 came to 0.8 ± 0.02 µM in test [1]; 2.61 ± 0.78 µM in test [2]; 3.64 ± 0.1 µM in [3]; 30 ± 17.6 µM in test [4]; 1.04 ± 0.13 µM in test [5]; 1.63 ± 0.01 µM in test [6]. The IC50 in [7] is 2.73 ± 0.33 µM; in [8], 1.18 ± 0.2 µM; at CpunPBP5, 1.33 ± 0.06 µM; on CpunPBP2 it was 0.94 ± 0.03 µM. Also, the Kd in [1] was 0.22 ± 0.01 µM; in [2] it was 1.06 ± 0.32 µM; in [3], 1.85 ± 0.16 µM; in test [4], 19.9 ± 11.7 µM; in test [5], 0.11 ± 0.01 µM; in test [6] it was 0.72 µM. The dissociation constant (Kd) in test [7] was 1.49 ± 0.18 µM; in [8], 0.54 ± 0.09 µM; at CpunPBP5, 0.6 ± 0.02 µM; on CpunPBP2 it was 0.4 ± 0.01 µM. In [3] (mutant CpunPBP5-m3 vs wild type), the “binding affinity of mutant compared with CpunPBP5 (in words)” value was “decreased the most”. Besides, at CpunPBP5, the “binding affinity to CpunPBP5 (in words)” value is recorded as “highest binding ability”. Moreover, the activity at 6000 µM at CpunPBP5 turned out to be 40 ± 1.53%; on CpunPBP2, 39.5 ± 0.83%. The “binding affinity to CpunPBP2 (in words)” value at CpunPBP2 was “highest binding ability”.
In the case of `CCCCCCCCCCCCCCCC=O` [Hexadecanal], at CpunPBP5, the IC50 came out at 4.51 ± 0.08 µM, the equilibrium dissociation constant (Kd) was 3.65 ± 0.07 µM and the activity at 6000 µM came out at 46.83 ± 0.18%. Also, at CpunPBP2, the half-inhibitory concentration (IC50) was determined as 1.84 ± 0.02 µM, the Kd was 1.07 ± 0.01 µM and the activity at 6000 µM amounted to 34.03 ± 0.34%. In addition, in the test on yellow peach moth males, the “attraction of males in field trials” value was “do not attract males”.
`CCCCC/C=C\CCCCCCCCC=O` [Z10-16:Ald, (Z)-10-hexadecenal]: the IC50 in test [1] was found to be 0.76 ± 0.01 µM; in test [2], 2.57 ± 0.55 µM; in test [3] it was 1.62 ± 0.04 µM; in test [4] it was 15.4 ± 3.18 µM; in [5], 0.92 ± 0.05 µM; in [6], 1.41 ± 0.02 µM. The IC50 was 1.66 ± 0.03 µM in test [7], 0.79 ± 0.03 µM in test [8], 0.97 ± 0.02 µM at CpunPBP5 and 0.98 ± 0.09 µM on CpunPBP2. In addition, the equilibrium dissociation constant (Kd) in [1] is 0.21 µM; in test [2] it was 1.04 ± 0.22 µM; in [3] it was 0.82 ± 0.02 µM; in [4], 10.2 ± 2.11 µM; in [5], 0.1 µM; in test [6] it was 0.72 ± 0.01 µM. The equilibrium dissociation constant (Kd) in test [7] is 0.9 ± 0.02 µM; in [8], 0.36 ± 0.01 µM; at CpunPBP5, 0.36 ± 0.01 µM; on CpunPBP2, 0.42 ± 0.04 µM. Besides, the “binding capacity of mutant compared with CpunPBP5 (in words)” value in test [2] (mutant CpunPBP5-m4 vs wild type) was “decreased considerably”. For the same compound, the “binding affinity to CpunPBP5 (in words)” value on CpunPBP5 is “highest binding ability”. The results for the activity at 6000 µM on CpunPBP5 and at CpunPBP2 were 40.6 ± 1.39% and 42.5 ± 1.88%, respectively. In addition, the “binding affinity to CpunPBP2 (in words)” value at CpunPBP2 was “highest binding ability”. The “attraction of males in field trials” value with yellow peach moth males is on record as “do not attract males”.
